From the supplement of paper PMC7801607 come the findings set out here.

What is called IC50 is the concentration that inhibits the measured activity by half.

The experiment relates to Plasmodium falciparum Dd2 asexual blood stage.

`O=[N+]([O-])c1cn2c(n1)OC[C@@H](OCc1ccc(OC(F)(F)F)cc1)C2` gave an IC50 greater than 5 µM.
On to `NC[C@H]1OB(O)c2c(OCCCO)cccc21`, for which the IC50 is greater than 5 µM.
For `CC(C)Nc1ncnc2c1cnn2-c1ccc(Cl)cc1`, the IC50 was greater than 5 µM.
For the compound `Nc1cccc(-c2nc(N)nc(NC3Cc4ccccc4C3)n2)c1`, the IC50 is greater than 5 µM.
As for `CCc1nc2ccc(Cl)cn2c1C(=O)NCc1ccc(N2CCC(c3ccc(OC(F)(F)F)cc3)CC2)cc1`, the IC50 was greater than 5 µM.
Under `Cc1ccc(C)c(OCCCCCCN2C[C@H](O)[C@@H](O)[C@H](O)[C@H]2CO)c1` stands greater than 5 µM.
Under `NC(=O)c1c(N)sc2c1CCCCC2` stands greater than 5 µM; under `Nc1ccc(-c2nc3cc(C(F)(F)F)ccc3n2C23CC4CC(CC(C4)C2)C3)cc1`, greater than 5 µM; under `C[C@@H]1O[C@@H]1P(=O)(O)O`, greater than 5 µM.
On to `CC[C@@H](CO)NCCN[C@@H](CC)CO`, for which the IC50 is greater than 5 µM.
The value for `O=C(O)C(Cc1c[nH]c2ccccc12)N1C(=O)c2ccccc2C1=O` (configuration not stated) was greater than 5 µM; that for `COc1cc(C(C)(C)CCCC(C)C)cc(OC)c1OC` was greater than 5 µM.
Turning to `O=C(O)c1ccc(-c2ccc(O[C@H]3O[C@H](CO)[C@@H](O)[C@H](O)[C@@H]3O)cc2)cc1`, the IC50 was greater than 5 µM.
In turn, `CN1C(=O)C(c2ccccc2)C(=O)N(c2ccccc2)c2cc(C(F)(F)F)ccc21` (configuration not stated) registered an IC50 greater than 5 µM.
For the compound `Nc1nc(-c2ccccc2)nc2c1ncn2[C@@H]1O[C@H](COS(=O)(=O)NC(=O)c2ccccc2O)[C@@H](O)[C@H]1O`, the IC50 is greater than 5 µM.
With `Nc1nc(=O)c(Br)c(-c2cccc(Cl)c2)[nH]1`, the IC50 was greater than 5 µM.
`O=C(NCc1ccccc1Cl)c1cnc2ccccc2n1`: the IC50 was greater than 5 µM.
Compound `CN(C)CC(=O)Nc1ccc2[nH]c(=O)c3ccccc3c2c1` yielded an IC50 greater than 5 µM.
`COc1cc(Cc2cc(N)nc(N)n2)cc(OC)c1OC` came in with an IC50 greater than 5 µM.
The value for `OC[C@@H]1CC[C@H](n2cnc3c(O)ncnc32)O1` was greater than 5 µM; that for `C[C@@H](c1nc(-c2ccc(C#N)cc2)cs1)[C@](O)(Cn1cncn1)c1ccc(F)cc1F` was greater than 5 µM; that for `CC(=O)Oc1ccccc1C(=O)Nc1ncc([N+](=O)[O-])s1` was greater than 5 µM.
As to `Cc1cc(-c2ccccc2)c(C(=O)C(=O)Nc2ccc(N3CCN(c4ncc(F)cn4)CC3)cc2)n1C`, the IC50 is greater than 5 µM.
`Cc1c(N)cccc1Cn1ccc(OCCc2cccs2)cc1=O` showed an IC50 greater than 5 µM.
Regarding `Clc1cc2nc(C3CCNCC3)n(Cc3ccc(CNCCc4cnc[nH]4)cc3)c2cc1Cl`, the IC50 stood at 2.41 µM.
As for `CCCCc1ccc(-c2nc(C)c(C(=O)OC)s2)cc1`, the IC50 was greater than 5 µM.
`NC1(C(=O)O)CCP(=O)(O)CC1` (configuration not stated) showed an IC50 greater than 5 µM.
Turning to `NC[C@H]1O[C@H](O[C@H]2[C@H](O)[C@@H](O[C@H]3O[C@H](CO)[C@@H](O)[C@H](N)[C@H]3O)[C@H](N)C[C@@H]2N)[C@H](N)C[C@@H]1O`, the IC50 is greater than 5 µM.
Take `FC(F)(F)c1cc(C(F)(F)F)c2ccc3nc(-c4nnco4)cn3c2n1`: the IC50 is greater than 5 µM.
Turning to `Cc1cc(C2CCCCC2)n(O)c(=O)c1`, the IC50 was found to be 4.8 µM. This lies in the single-digit micromolar range.
The compound `COc1ccc(OCc2ccc(COc3c(Cl)cccc3Cl)cc2)c(Cl)c1` showed an IC50 greater than 5 µM.
For the compound `NC(=O)[C@@H]1CC[C@@H]2CN1C(=O)N2OS(=O)(=O)O`, the IC50 is greater than 5 µM.
`CC1(C)Cc2c(C#N)c(SCCc3ccccc3)nc(N3CCOCC3)c2CO1` registered an IC50 greater than 5 µM.
Under `CCCCN1C[C@H](O)[C@@H](O)[C@H](O)[C@H]1CO` stands greater than 5 µM; under `NC(=O)c1[nH]c2ccc(S(N)(=O)=O)cc2c1-c1ccccc1`, greater than 5 µM; under `CCOC(=O)N1CCN(c2ccc(Cl)cc2)CC1`, greater than 5 µM.
The value for `COc1ccccc1CN[C@H]1C2CCN(CC2)[C@H]1C(c1ccccc1)c1ccccc1` was 2.23 µM; that for `CCOc1ccc(/C=N/NC(=O)C2CC2c2ccc(C(C)(C)C)cc2)cc1OCC` (configuration not stated) was greater than 5 µM; that for `CCn1cc(C(=O)O)c(=O)c2cc(F)c(N3CCNC(C)C3)c(F)c21` (configuration not stated) was greater than 5 µM.
Compound `CCCCCOc1ccc(/C=C2\Oc3c(ccc(O)c3O)C2=O)c(O)c1` returned an IC50 greater than 5 µM.
The value for `CCCCCCC1c2ccc(O)cc2Oc2cc(O)ccc21` was greater than 5 µM; that for `NNC(=O)c1ccncc1` was greater than 5 µM; that for `O=C(N[C@H](CCS)C(=O)N[C@H](Cc1ccccc1)C(=O)O)c1cc2ccccc2[nH]1` was greater than 5 µM.
For the compound `O[C@@](Cn1cnnn1)(c1ccc(F)cc1F)C(F)(F)c1ccc(-c2ccc(OCC(F)(F)F)cc2)cn1`, the IC50 is greater than 5 µM.
In turn, `CC1(C)C[C@H]1C(=O)N/C(=C\CCCCSC[C@@H](N)C(=O)O)C(=O)O` displayed an IC50 greater than 5 µM.
Under `c1ccc(Cn2c(-c3ccccn3)nc3ccccc32)cc1` stands greater than 5 µM.
In the case of `CC(C)Oc1ccc(-n2cnc3cc(/C=C\c4ccc(C(C)(C)O)cc4)ccc32)cc1`, the IC50 was greater than 5 µM.
In turn, `O=S(=O)(Nc1ccccc1)c1ccc(NC(=S)Nc2ccccc2)cc1` gave an IC50 greater than 5 µM.
`OB1OCc2c1ccc(Cl)c2F` had an IC50 greater than 5 µM.
`COc1ccc(COc2cc3oc(=O)c4cc(C(C)O)ccc4c3cc2OC)cc1` (configuration not stated) showed an IC50 greater than 5 µM.
`[N-]=[N+]=N[C@H]1C[C@H](n2ccc(=O)[nH]c2=O)O[C@@H]1CO` showed an IC50 greater than 5 µM.
The value for `CC#C[C@]1(O)CC[C@H]2[C@@H]3CCC4=CC(=O)CCC4=C3[C@@H](c3ccc(N(C)C)cc3)C[C@@]21C` was greater than 5 µM; that for `O=C(NC(=O)N1CCCc2ccccc21)c1ccc(Cl)cc1Cl` was greater than 5 µM.
`O=C(/C=C/n1cnc(-c2cc(C(F)(F)F)cc(C(F)(F)F)c2)n1)NNc1cnccn1`: the IC50 is greater than 5 µM.
Regarding `Nc1nnc(-c2ccc(Cl)cc2)s1`, the IC50 is greater than 5 µM.
Turning to `CC(C)(C)NC(=O)N[C@H](C(=O)N1C[C@H]2[C@@H]([C@H]1C(=O)NC(CC1CCC1)C(=O)C(N)=O)C2(C)C)C(C)(C)C` (some centres not stated), the IC50 is greater than 5 µM.
`CN(C/C=C/C#CC(C)(C)C)Cc1cccc2ccccc12` yielded an IC50 greater than 5 µM.
Take `O=C1NC(=S)N/C1=C\c1cc(Br)cc(Br)c1O`: the IC50 is greater than 5 µM.
Compound `COc1cc(C2C3=C(CC(C)(C)CC3=O)Nc3ccccc3N2C(C)=O)ccc1OCc1ccccc1` (configuration not stated) displayed an IC50 greater than 5 µM.
With `COc1ccc(C)cc1NC(=O)c1ccc(S(=O)(=O)N2CCCCC2)cc1`, the IC50 was greater than 5 µM.
Take `O=C1CCC(N2C(=O)c3ccccc3C2=O)C(=O)N1` (configuration not stated): the IC50 is greater than 5 µM.
Regarding `Cc1ccn2c(C(=O)NCc3ccccc3)c(C)nc2c1`, the IC50 was greater than 5 µM.
`COc1c(F)c(F)cc2c(=O)c(C(=O)O)cn(C3CC3)c12` gave an IC50 greater than 5 µM.
The value for `CC(C)(C)NC(=O)[C@@H]1C[C@@H]2CCCC[C@@H]2CN1C[C@@H](O)[C@H](Cc1ccccc1)NC(=O)[C@H](CC(N)=O)NC(=O)c1ccc2ccccc2n1` was greater than 5 µM.
On to `O=C(N[C@H](Cc1cccc2ccccc12)C(=O)NCCc1c[nH]cn1)C1Cc2ccccc2C1`, for which the IC50 was greater than 5 µM.
`C[C@@]1(O)[C@H](O)[C@@H](CO)O[C@H]1n1ccc2c(N)ncnc21` displayed an IC50 greater than 5 µM.
In the case of `NC(=O)c1ccccc1NC(=O)c1ccc(C(=O)Nc2ccccc2C(N)=O)cc1`, the IC50 was greater than 5 µM.
As for `C[C@H](c1cccc2ccccc12)N(C)Cc1ccccc1`, the IC50 is greater than 5 µM.
As to `O=C(NNC(=S)Nc1ccc(Cl)cc1)c1ccncc1`, the IC50 was greater than 5 µM.
`O=[N+]([O-])/C(Br)=C/c1ccc(Br)o1` displayed an IC50 greater than 5 µM.
As for `CCOC(=O)N[C@@H]1CC[C@@H]2[C@@H](C1)C[C@H]1C(=O)O[C@H](C)[C@H]1[C@H]2/C=C/c1ccc(-c2cccc(F)c2)cn1`, the IC50 was greater than 5 µM.
In turn, `N=C(N)c1ccc(COc2ccc(Cl)cc2)cc1` showed an IC50 greater than 5 µM.
`NC(=O)c1ccc(I)c([N+](=O)[O-])c1` yielded an IC50 greater than 5 µM.
In turn, `COCCn1cnc2c(=O)[nH]c(Nc3ccccc3)nc21` yielded an IC50 greater than 5 µM.
In turn, `O=C(O)CCNC(=O)c1ccccc1` showed an IC50 greater than 5 µM.
`CCC[C@H](NC(=O)[C@@H]1[C@H]2CCC[C@H]2CN1C(=O)[C@@H](NC(=O)[C@@H](NC(=O)c1cnccn1)C1CCCCC1)C(C)(C)C)C(=O)C(=O)NC1CC1` showed an IC50 greater than 5 µM.
Compound `C[C@H](Cn1cnc2c(N)ncnc21)OCP(=O)(O)O` showed an IC50 greater than 5 µM.
The value for `O=C(NO)C1(CS(=O)(=O)c2ccc(Oc3ccc(Cl)cc3)cc2)CCOCC1` was greater than 5 µM.
The value for `CC(=O)O[C@H]1C[C@@]2(C)[C@@H](C[C@@H](O)[C@H]3[C@@]4(C)CC[C@@H](O)[C@@H](C)[C@@H]4CC[C@@]32C)/C1=C(\CCC=C(C)C)C(=O)O` was greater than 5 µM.
Compound `N#C/C(=C1/SC[C@H](c2ccc(Cl)cc2Cl)S1)n1ccnc1` returned an IC50 greater than 5 µM.
In turn, `COc1ccc(NC(=O)CC2Sc3ncnn3C2=O)cc1` (configuration not stated) came in with an IC50 greater than 5 µM.
Compound `Oc1cc(-c2cccc3ccccc23)[nH]n1` registered an IC50 greater than 5 µM.
As to `C[C@H]1CC[C@@]2(O)C(C)(C)[C@@H]3CC[C@@]2(C)[C@H]1C3`, the IC50 was greater than 5 µM.
Under `COc1ccccc1NC(=O)c1ccccc1Sc1ccc([N+](=O)[O-])cc1` stands greater than 5 µM; under `O=C(CC1Sc2ncnn2C1=O)Nc1ccc(Br)cc1` (configuration not stated), greater than 5 µM; under `COc1ccc(NC(=O)c2cc3ccccn3n2)cc1`, greater than 5 µM.
The compound `O=c1nc(N2CCN(CC3CCCCC3)CC2)sc2c([N+](=O)[O-])cc(C(F)(F)F)cc12` returned an IC50 greater than 5 µM.
`CSC[C@H]1CN(Cc2c[nH]c3c(N)ncnc23)C[C@@H]1O` yielded an IC50 greater than 5 µM.
On to `CC(C)(C)c1cc(C(=O)/C(C#N)=N/Nc2cccc(Cl)c2)no1`, for which the IC50 was greater than 5 µM.
`O=C(Nc1ccccc1C(=O)O)c1cccc(Oc2ccccc2)c1` yielded an IC50 greater than 5 µM.
On to `NC(=O)c1cnccn1`, for which the IC50 was greater than 5 µM.
Take `NCc1ccc(S(N)(=O)=O)cc1`: the IC50 was greater than 5 µM.
